Patent publication US20170350876A1, “BIOSENSOR FOR SINGLE CELL ANALYSIS” (priority 2016, published 2017)

Legend:
MCF-7 single cells = assay: Single cell impedance monitoring on the biosensor (EDR single cell analysis); format: cell-based, human; conditions: for mean impedance changes of the single cells over time, in words: 2.1 and 10.5 nM MBZ, 0.1 and 1 nM PTX, nano-roughened biosensor, about 4 kHz, FIG. 12A
Method: MCF-7 cell lines which were acquired to be used in this example. The cell lines have been separated from grad I human breast tumors. The cell lines were maintained at 37° C. in an incubator (about 5% CO2, about 95% clean air) and in RPMI-1640 medium supplemented with about 5% fetal bovine serum and about 1% penicillin/streptomycin. The fresh medium was replaced every other day. In order to detach cell from the substrate and become suspended in cell solution, cells was trypsynized. As performing cell culturing process at room temperature of about 20° C. -22° C., trypsinization should be done in less than about 6 minutes to minimize the influence of trypsinization. The cell solution was dropped onto an exemplary biosensor, which was fabricated according to EXAMPLE 1, and then the biosensor was maintained in an incubator for about 4 hours to reach cells attachment on the biosensor surface and trapping single cells within microwells of the biosensor.
Exemplary biosensors with cell solutions dropped onto them (as described herein in EXAMPLE 2) were maintained in an incubator for about 4 hours to reach cells attachment on biosensors surface. MBZ and PTX antitubulin drugs were added into the microwells containing single cells in low concentrations (about 2.1 nM for MBZ and about 0.1 nM for PTX) and high concentrations (about 10.5 nM for MBZ and about 1 nM for PTX) concentrations. The signals were recorded 2 hours, 5 hours, 8 hours, 20 hours, 32 hours, and 44 hours after drug addition that means 6 hours, 9 hours, 12 hours, 24 hours, […]. Electrical signals Measurements were collected in frequencies ranged from about 1 KHz to about 60 KHz by impedance measurement system (electrical signal extraction board) at about every 2 hours. A small “ac” sinusoidal signal was applied to the sensors. For different frequencies of the “ac” signal, the sensitivity of the sensor would vary which is called as the frequency characteristics. The bias voltage of the system was about 40 mV which wasn't destructive for cellular metabolism and a series resistance was used as current limiter element. For each cell trapped in each microwell of the biosensors, four electrodes may be used for signal extraction in two states (with up-down or right-left neighbor electrodes). The final result may be the average of the several signals extracted from the different sensors on a chip (several microwells on a biosensor) to consider cellular heterogeneity and different positioning of the cells relative to the electrodes and other parameters.
FIGS. 10A-10F show impedance diagrams for a MCF-7 single cell seeded and trapped in a microwell between electrodes about 4 hours after dropping the solution containing cells, which was assumed as an initial time (T=0) for all measurement experiments. After the attachment of the cell on the region between recording or sensing electrodes (after about 4 hours), observable increment in impedance was recorded with respect to media solution covered state (curve 1001 Vs. curve 1002 in FIG. 10A). T parameter was defined as a time merit started after dropping of the cells (t=4 hours was assumed equal to T=0). Delta Z (ΔZ) may include the difference between impedance at about 4 hours after cell seeding (equal to T=0) and the 4+x^th hours (x may be equal to 2, 5, 8, etc.), divided by the impedance at T=0. Average impedance of all frequencies were used for comparison. For better comprehension of impedimetric regime, the impedance changes of the CTRL cell were plotted in subsequently next time periods (about 6th, 9th, 12th and 24th hours) with respect to the impedance of the sensor in 4th hours after dropping the cells solution that are shown by curves 1003 (at T=2 or t=6 hours), 1004 (at T=5 or t=9 hours), 1005 (at T=8 or t=12 hours), and 1006 (at T=20 or t=24 hours) in FIG. 10B. […]

[1] = system: MCF-7 cells, cytoskeletal structure (microtubules); assay: Confocal imaging of drug treated single cells (anti-α-tubulin staining); conditions: 10.5 nM MBZ or 1 nM PTX, about 20 hours after drug treatment, compared with CTRL

| Structure (SMILES) | impedance reduction (MCF-7 single cells; 2.1 nM MBZ, T=2 hours, relative to T=0, FIG. 10C) | impedance reduction (MCF-7 single cells; 2.1 nM MBZ, T=6 hours (so in the source), relative to T=0, FIG. 10C) | impedance reduction (MCF-7 single cells; 2.1 nM MBZ, T=8 hours, relative to T=0, FIG. 10C) | impedance reduction (MCF-7 single cells; 2.1 nM MBZ, T=20 hours, relative to T=0, FIG. 10C) | impedance reduction (MCF-7 single cells; 10.5 nM MBZ, first time interval (T=2 hours), FIG. 10D) | impedance reduction (MCF-7 single cells; 10.5 nM MBZ, fourth time interval (T=20 hours), FIG. 10D) | impedance reduction (MCF-7 single cells; 10.5 nM MBZ, second time interval (T=6 hours as printed), FIG. 10D) | impedance reduction (MCF-7 single cells; 10.5 nM MBZ, third time interval (T=8 hours), FIG. 10D) | mean impedance changes of the single cells over time, in words (MCF-7 single cells) | effect on cytoskeletal structure and mitosis (confocal images), in words [1] | impedance increment (MCF-7 single cells; 0.1 nM PTX, T=about 2 hours, relative to T=0, FIG. 10E) | impedance increment (MCF-7 single cells; 0.1 nM PTX, T=about 5 hours, relative to T=0, FIG. 10E) | impedance increment (MCF-7 single cells; 0.1 nM PTX, T=about 8 hours, relative to T=0, FIG. 10E) | impedance increment (MCF-7 single cells; 0.1 nM PTX, T=about 20 hours, relative to T=0, FIG. 10E) | impedance increment (MCF-7 single cells; 1 nM PTX (high dose), T=2 hours, FIG. 10F) | impedance increment (MCF-7 single cells; 1 nM PTX (high dose), T=5 hours, FIG. 10F) | impedance increment (MCF-7 single cells; 1 nM PTX (high dose), T=8 hours, FIG. 10F) | impedance increment (MCF-7 single cells; 1 nM PTX (high dose), T=20 hours, FIG. 10F) |
| --- | --- | --- | --- | --- | --- | --- | --- | --- | --- | --- | --- | --- | --- | --- | --- | --- | --- | --- |
| COC(=O)Nc1nc2ccc(C(=O)c3ccccc3)cc2[nH]1 [MBZ, methyl5-benzoyl-2-benzimidazole-carbamate] | about 5% | ~10% | about 15% | ~30% | about 15% | ~45% | ~25% | ~35% | continues reduction in the impedance which exhibited a linier correlation with doses of the drug | No entrance to even primary cycles of mitosis, degraded distribution of cytoskeleton and monoastered microtubules | – | – | – | – | – | – | – | – |
| CC(=O)O[C@H]1C(=O)[C@@]2(C)[C@H]([C@H](OC(=O)c3ccccc3)[C@]3(O)C[C@H](OC(=O)[C@H](O)[C@@H](NC(=O)c4ccccc4)c4ccccc4)C(C)=C1C3(C)C)[C@]1(OC(C)=O)CO[C@@H]1C[C@@H]2O [PTX, Paclitaxel] | – | – | – | – | – | – | – | – | moderate impedance increment with dose dependent reductive regime | aggregated MTs as polymerizing effect of Taxol on cytoskeletal structure which induced mitotic arrest in the cell and deformed the nucleus during the mitosis | about 10% | ~30% | ~35% | ~45% | about 5% | ~15% | ~20% | ~25% |
